# Test results reported in ChEMBL document CHEMBL2440076, “New triarylpyrazoles as broad-spectrum anticancer agents: design, synthesis, and biological evaluation” (Eur J Med Chem, 2013).
# Key:
# [1] = tested on: IGROV-1; assay: Growth inhibition of human IGROV1 cells assessed as cell growth at 10 uM after 48 hrs by sulforhodamine B assay; assay type: functional; settings: IGROV-1, 48 h, read-out: Activity
# [2] = tested on: Malme-3M; assay: Growth inhibition of human MALME-3M cells assessed as cell growth at 10 uM after 48 hrs by sulforhodamine B assay; assay type: functional; settings: read-out: Activity
# [3] = tested on: HCT-116; assay: Growth inhibition of human HCT116 cells after 48 hrs by sulforhodamine B assay; assay type: functional; settings: HCT-116, 48 h
# [4] = tested on: COLO 205; assay: Growth inhibition of human COLO205 cells after 48 hrs by sulforhodamine B assay; assay type: functional; settings: COLO 205, 48 h
# [5] = tested on: ACHN; assay: Growth inhibition of human ACHN cells after 48 hrs by sulforhodamine B assay; assay type: functional
# [6] = tested on: LOX IMVI; assay: Growth inhibition of human LOXIMVI cells after 48 hrs by sulforhodamine B assay; assay type: functional
# [7] = tested on: SNB-19; assay: Growth inhibition of human SNB19 cells after 48 hrs by sulforhodamine B assay; assay type: functional; settings: SNB-19, 48 h
# [8] = tested on: NCI-H322M; assay: Growth inhibition of human NCI-H322M cells assessed as cell growth at 10 uM after 48 hrs by sulforhodamine B assay; assay type: functional; settings: read-out: Activity
# [9] = tested on: NCI-H226; assay: Growth inhibition of human NCI-H226 cells after 48 hrs by sulforhodamine B assay; assay type: functional; settings: NCI-H226, 48 h
# [10] = tested on: HOP-92; assay: Growth inhibition of human HOP92 cells after 48 hrs by sulforhodamine B assay; assay type: functional, cell-based; settings: HOP-92, 48 h
# [11] = tested on: OVCAR-4; assay: Growth inhibition of human OVCAR4 cells assessed as cell growth at 10 uM after 48 hrs by sulforhodamine B assay; assay type: functional; settings: OVCAR-4, 48 h, read-out: Activity
# [12] = tested on: HCT-15; assay: Growth inhibition of human HCT15 cells assessed as cell growth at 10 uM after 48 hrs by sulforhodamine B assay; assay type: functional; settings: HCT-15, 48 h, read-out: Activity
# [13] = tested on: HCT-15; assay: Growth inhibition of human HCT15 cells after 48 hrs by sulforhodamine B assay; assay type: functional; settings: HCT-15, 48 h
# [14] = tested on: CCRF-CEM; assay: Growth inhibition of human CCRF-CEM cells assessed as cell growth at 10 uM after 48 hrs by sulforhodamine B assay; assay type: functional; settings: read-out: Activity
# [15] = tested on: KM12; assay: Growth inhibition of human KM12 cells assessed as cell growth at 10 uM after 48 hrs by sulforhodamine B assay; assay type: functional; settings: KM12, 48 h, read-out: Activity
# [16] = tested on: LOX IMVI; assay: Growth inhibition of human LOXIMVI cells assessed as cell growth at 10 uM after 48 hrs by sulforhodamine B assay; assay type: functional; settings: read-out: Activity
# [17] = tested on: SF-539; assay: Growth inhibition of human SF539 cells assessed as cell growth at 10 uM after 48 hrs by sulforhodamine B assay; assay type: functional; settings: SF-539, 48 h, read-out: Activity
# [18] = tested on: HT-29; assay: Growth inhibition of human HT-29 cells assessed as cell growth at 10 uM after 48 hrs by sulforhodamine B assay; assay type: functional; settings: HT-29, 48 h, read-out: Activity
# [19] = tested on: A498; assay: Growth inhibition of human A498 cells after 48 hrs by sulforhodamine B assay; assay type: functional, cell-based; settings: A498, 48 h
# [20] = tested on: A549; assay: Growth inhibition of human A549/ATCC cells assessed as cell growth at 10 uM after 48 hrs by sulforhodamine B assay; assay type: functional; settings: A549, 48 h, read-out: Activity
# [21] = tested on: HOP-62; assay: Growth inhibition of human HOP62 cells after 48 hrs by sulforhodamine B assay; assay type: functional; settings: HOP-62, 48 h
# [22] = tested on: SF-268; assay: Growth inhibition of human SF268 cells after 48 hrs by sulforhodamine B assay; assay type: functional; settings: SF-268, 48 h
# [23] = tested on: M14; assay: Growth inhibition of human M14 cells after 48 hrs by sulforhodamine B assay; assay type: functional; settings: M14, 48 h
# [24] = tested on: SN12C; assay: Growth inhibition of human SN12C cells after 48 hrs by sulforhodamine B assay; assay type: functional
# [25] = tested on: OVCAR-4; assay: Growth inhibition of human OVCAR4 cells after 48 hrs by sulforhodamine B assay; assay type: functional; settings: OVCAR-4, 48 h
# [26] = tested on: OVCAR-8; assay: Growth inhibition of human OVCAR8 cells after 48 hrs by sulforhodamine B assay; assay type: functional; settings: OVCAR-8, 48 h
# [27] = tested on: MDA-MB-435; assay: Growth inhibition of human MDA-MB-435 cells assessed as cell growth at 10 uM after 48 hrs by sulforhodamine B assay; assay type: functional; settings: MDA-MB-435, 48 h, read-out: Activity
# [28] = tested on: HOP-92; assay: Growth inhibition of human HOP92 cells assessed as cell growth at 10 uM after 48 hrs by sulforhodamine B assay; assay type: functional; settings: HOP-92, 48 h, read-out: Activity
# [29] = tested on: SR; assay: Growth inhibition of human SR cells after 48 hrs by sulforhodamine B assay; assay type: functional
# [30] = tested on: UACC-62; assay: Growth inhibition of human UACC62 cells after 48 hrs by sulforhodamine B assay; assay type: functional; settings: UACC-62, 48 h
# [31] = tested on: MOLT-4; assay: Growth inhibition of human MOLT4 cells assessed as cell growth at 10 uM after 48 hrs by sulforhodamine B assay; assay type: functional; settings: MOLT-4, 48 h, read-out: Activity
# [32] = tested on: MCF7; assay: Growth inhibition of human MCF7 cells assessed as cell growth at 10 uM after 48 hrs by sulforhodamine B assay; assay type: functional; settings: MCF7, 48 h, read-out: Activity
# [33] = Growth inhibition of human NCI-ADR-RES cells assessed as cell growth at 10 uM after 48 hrs by sulforhodamine B assay; assay type: functional; settings: read-out: Activity
# [34] = tested on: Malme-3M; assay: Growth inhibition of human MALME-3M cells after 48 hrs by sulforhodamine B assay; assay type: functional
# [35] = tested on: NCI-H226; assay: Growth inhibition of human NCI-H226 cells assessed as cell growth at 10 uM after 48 hrs by sulforhodamine B assay; assay type: functional; settings: NCI-H226, 48 h, read-out: Activity
# [36] = read-out: LC50 (the source's name)
compound,measurement,setting,value
O=C(Nc1cccc(-n2cc(-c3ccncc3)c(-c3ccc(Cl)c(O)c3)n2)c1)Nc1cccc(C(F)(F)F)c1,growth at 10 µM,[1],28.6%
same,growth at 10 µM,[2],1.16%
same,GI50,[3],1.39 µM
same,TGI,[3],8.26 µM
same,CC50,[3]; [36],> 32.5 µM
same,GI50,[4],7.9 µM
same,LC50 (concentration killing 50% of cells),[4],> 32.5 µM
same,TGI,[4],23.8 µM
same,GI50,[5],1.29 µM
same,TGI,[5],> 32.5 µM
same,CC50,[5]; [36],> 32.5 µM
same,GI50,[6],2.53 µM
same,LC50,[6],32.4 µM
same,TGI,[6],9.58 µM
same,GI50,[7],1.91 µM
same,LC50 (concentration killing 50% of cells),[7],> 32.5 µM
same,TGI,[7],> 32.5 µM
same,growth at 10 µM,[8],48.2%
same,GI50,[9],7.35 µM
same,TGI,[9],> 32.5 µM
same,CC50,[9]; [36],> 32.5 µM
same,GI50,[10],0.509 µM
same,IC50,[10],0.51 µM
same,LC50,[10],> 32.5 µM
same,TGI,[10],2.23 µM
same,growth at 10 µM,[11],41.5%
same,growth at 10 µM,[12],18.2%
same,GI50,[13],1.51 µM
same,LC50,[13],> 32.5 µM
same,TGI,[13],> 32.5 µM
same,growth at 10 µM,[14],10.6%
same,growth at 10 µM,[15],2.46%
same,growth at 10 µM,[16],23.8%
same,growth at 10 µM,[17],38.5%
same,growth at 10 µM,[18],77.8%
same,GI50,[19],2.24 µM
same,IC50,[19],2.24 µM
same,TGI,[19],> 32.5 µM
same,CC50,[19]; [36],> 32.5 µM
same,growth at 10 µM,[20],5.74%
same,GI50,[21],6.86 µM
same,TGI,[21],> 32.5 µM
same,CC50,[21]; [36],> 32.5 µM
same,GI50,[22],1.95 µM
same,TGI,[22],15.8 µM
same,CC50,[22]; [36],> 32.5 µM
same,GI50,[23],1.4 µM
same,LC50 (concentration killing 50% of cells),[23],> 32.5 µM
same,TGI,[23],10.8 µM
same,GI50,[24],2.01 µM
same,TGI,[24],> 32.5 µM
same,CC50,[24]; [36],> 32.5 µM
same,GI50,[25],3.18 µM
same,LC50 (concentration killing 50% of cells),[25],> 32.5 µM
same,TGI,[25],> 32.5 µM
same,GI50,[26],1.57 µM
same,TGI,[26],> 32.5 µM
same,CC50,[26]; [36],> 32.5 µM
same,growth at 10 µM,[27],15.6%
same,growth at 10 µM,[28],-17.7%
same,GI50,[29],1.82 µM
same,TGI,[29],20 µM
same,CC50,[29]; [36],> 32.5 µM
same,GI50,[30],1.65 µM
same,LC50 (50% lethal concentration),[30],21.9 µM
same,TGI,[30],6.91 µM
same,growth at 10 µM,[31],12.5%
same,growth at 10 µM,[32],10.3%
same,growth at 10 µM,[33],24.9%
same,GI50,[34],1.81 µM
same,LC50 (concentration killing 50% of starting cells),[34],> 32.5 µM
same,TGI,[34],20.1 µM
same,growth at 10 µM,[35],35.1%
